{"source": "patent US6432415B1", "about": "“Pharmaceutical gel and aerosol formulations and methods to administer the same to skin and mucosal surfaces” (Axrix Laboratories, Inc., priority 1999, dated 2002)", "assay_type_in_all_cases": "physicochemical", "key": {"[1]": {"assay": "Solubility of Amlexanox in solvents and at different pH", "experimental": "To illustrate the many aspects of the present invention, it is provided herein several Examples of formulations which comprise a specific not-very-soluble drug known as Amlexanox or 2-amino-7-(1-methylethyl)-5-oxo-5H-[1]benzopyrano-[2,3-b]-pyridine-3-carboxylic acid. Amlexanox is not very soluble in lower alkyl alcohols (0.58 mg/mL, in dehydrated ethanol) or water (0.005 mg/mL). However, solubility of Amlexanox increases with pH. […] Thus, at any given time, Amlexanox may be present in the formulation as a solution or suspension or both."}, "[2]": {"assay": "Solubility of Amlexanox in 95% ethanol with imidazole (visual observation)", "details": "200 mM imidazole vs no imidazole", "experimental": "Amlexanox (4.8 mg to 20.5 mg) was added to seven glass scintillation vials. 95% Ethanol (in 5-100 uL aliquots) with various concentrations of imidazole (0-200 mM) was added to the vials containing Amlexanox. The total volume of 95% ethanol added to result in Amlexanox solubilization (by visual observation) was recorded."}, "[3]": {"assay": "Solubility of Propellant 152a in aqueous and ethanol/water solvents, with or without ethyl cellulose", "experimental": "In one aspect, the propellant is 1,1-difluoroethane also known as Propellant 152a, commercially available under the trade mark Dymel®. Propellant 152a is slightly soluble in aqueous solvents (solubility of less than 1% by weight).\nThe inventors have experimented with ethanol as a cosolvent to be used in conjunction with Propellant 152a. When water is added to the ethanol/Propellant 152a mixture, the solubility of Propellant 152a decreases. […] This unexpected increase in solubility was not observed when hydroxyethyl cellulose or hydroxypropyl cellulose was used instead of ethyl cellulose."}}, "data": [{"compound": "CC(C)c1ccc2oc3nc(N)c(C(=O)O)cc3c(=O)c2c1", "note": "[Amlexanox, 2-amino-7-(1-methylethyl)-5-oxo-5H-[1]benzopyrano-[2,3-b]-pyridine-3-carboxylic acid]", "values": [{"measurement": "solubility", "setting": "[1]; aqueous buffer, pH 3.0", "result": 12, "unit": "µg/mL"}, {"measurement": "solubility", "setting": "[1]; in water", "result": 5, "unit": "µg/mL"}, {"measurement": "solubility", "setting": "[1]; organic solvent or mixture, in dehydrated ethanol", "result": 580, "unit": "µg/mL"}, {"measurement": "solubility", "setting": "[1]; pH 5.96, aqueous buffer", "result": 15300, "unit": "µg/mL"}, {"measurement": "solubility in 95% ethanol with 200 mM imidazole relative to absence of imidazole", "setting": "[2]", "result": "approximately 7.5 fold"}]}, {"compound": "CC(F)F", "note": "[Propellant 152a, 1,1-difluoroethane]", "values": [{"measurement": "solubility of Propellant 152a", "setting": "[3]; aqueous solvents", "result": "less than 1 % by weight"}, {"measurement": "solubility of Propellant 152a", "setting": "[3]; ethyl cellulose about 0.7% to about 1.4%, ethanol/water (80:20)", "result": "62-64%"}, {"measurement": "solubility of Propellant 152a", "setting": "[3]; ethyl cellulose about 0.75% to about 10% added to ethanol or ethanol/water mixtures", "result": "62 to 64", "unit": "%"}, {"measurement": "solubility of Propellant 152a", "setting": "[3]; mixture of ethanol/water (80:20), no ethyl cellulose", "result": "about 49%"}]}]}
